Laboratory results published in PubChem BioAssay (NCI).
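Cultured in 96-well plates, cells were exposed to test compound for 48 hours across five concentrations. TGI: total growth inhibition.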

What was measured:
Assay in all cases: NCI anticancer screen, dose series, 48 h
786-0 renal = system: 786-0 renal
A549 NSCLC = system: A549 NSCLC
ACHN renal = system: ACHN renal
CAKI-1 renal = system: CAKI-1 renal
CCRF-CEM leukemia = system: CCRF-CEM leukemia
COLO 205 colon = system: COLO 205 colon
DU-145 prostate = system: DU-145 prostate
EKVX NSCLC = system: EKVX NSCLC
HCT-116 colon = system: HCT-116 colon
HCT-15 colon = system: HCT-15 colon
HL-60(TB) leukemia = system: HL-60(TB) leukemia
HOP-62 NSCLC = system: HOP-62 NSCLC
HS 578T breast = system: HS 578T breast
HT29 colon = system: HT29 colon
IGROV1 ovarian = system: IGROV1 ovarian
K-562 leukemia = system: K-562 leukemia
KM12 colon = system: KM12 colon
LOX IMVI melanoma = system: LOX IMVI melanoma
M14 melanoma = system: M14 melanoma
MCF7 breast = system: MCF7 breast
MDA-MB-231 breast = system: MDA-MB-231 breast
MDA-MB-435 = system: MDA-MB-435
MOLT-4 leukemia = system: MOLT-4 leukemia
NCI-H226 lung = system: NCI-H226 lung
NCI-H460 lung = system: NCI-H460 lung
NCI-H522 lung = system: NCI-H522 lung
NCI/ADR-RES ovarian = system: NCI/ADR-RES ovarian
OVCAR-3 ovarian = system: OVCAR-3 ovarian
OVCAR-5 ovarian = system: OVCAR-5 ovarian
OVCAR-8 ovarian = system: OVCAR-8 ovarian
PC-3 prostate = system: PC-3 prostate
RXF 393 renal = system: RXF 393 renal
SF-268 CNS = system: SF-268 CNS
SF-295 CNS = system: SF-295 CNS
SK-MEL-2 melanoma = system: SK-MEL-2 melanoma
SK-MEL-28 melanoma = system: SK-MEL-28 melanoma
SK-OV-3 ovarian = system: SK-OV-3 ovarian
SN12C renal = system: SN12C renal
SNB-19 CNS = system: SNB-19 CNS
SNB-75 CNS = system: SNB-75 CNS
SR leukemia = system: SR leukemia
SW-620 colon = system: SW-620 colon
T-47D breast = system: T-47D breast
TK-10 renal = system: TK-10 renal
U251 CNS = system: U251 CNS
UACC-257 melanoma = system: UACC-257 melanoma
UACC-62 melanoma = system: UACC-62 melanoma
UO-31 renal = system: UO-31 renal

With `c1ccc(Cc2cc(-c3ccccc3)n[nH]2)cc1` the TGI (786-0 renal) was 43.4 µM, the TGI (A549 NSCLC) was 26 µM and the TGI (ACHN renal) was 36.4 µM. For the same compound, the TGI (CAKI-1 renal) was 32.9 µM, the TGI (CCRF-CEM leukemia) was 27 µM and the TGI (COLO 205 colon) was 31.2 µM. The TGI (DU-145 prostate) was 26.2 µM, the TGI (EKVX NSCLC) was 27.5 µM and the TGI (HCT-116 colon) was 88.9 µM. For the same compound, the TGI (HCT-15 colon) was 53 µM, the TGI (HL-60(TB) leukemia) was 39.3 µM and the TGI (HOP-62 NSCLC) was 92.9 µM. The TGI (HS 578T breast) was 36.7 µM, the TGI (HT29 colon) was 23.2 µM and the TGI (IGROV1 ovarian) was 34 µM. It also gave a TGI (K-562 leukemia) of 25.6 µM, a TGI (KM12 colon) of 28.8 µM and a TGI (LOX IMVI melanoma) of 28.3 µM. It also gave a TGI (M14 melanoma) of 80.1 µM, a TGI (MCF7 breast) of 40.3 µM and a TGI (MDA-MB-231 breast) of 25.8 µM. It also gave a TGI (MDA-MB-435) of 22.8 µM, a TGI (MOLT-4 leukemia) of 23.1 µM and a TGI (NCI-H226 lung) of 33.5 µM. For the same compound, the TGI (NCI-H460 lung) was 33.3 µM, the TGI (NCI-H522 lung) was 33.2 µM and the TGI (NCI/ADR-RES ovarian) was 49.4 µM. It also gave a TGI (OVCAR-3 ovarian) of 16.8 µM, a TGI (OVCAR-5 ovarian) of 47.9 µM and a TGI (OVCAR-8 ovarian) of 30.9 µM. It also gave a TGI (PC-3 prostate) of 34.2 µM, a TGI (RXF 393 renal) of 22.1 µM and a TGI (SF-268 CNS) of 57.6 µM. For the same compound, the TGI (SF-295 CNS) was 19.5 µM, the TGI (SK-MEL-2 melanoma) was 31.8 µM and the TGI (SK-MEL-28 melanoma) was 25.8 µM. It also gave a TGI (SK-OV-3 ovarian) greater than 100 µM, a TGI (SN12C renal) of 26.3 µM and a TGI (SNB-19 CNS) of 82.7 µM. The TGI (SNB-75 CNS) was 15.8 µM, the TGI (SR leukemia) was 32.3 µM and the TGI (SW-620 colon) was 28.7 µM. For the same compound, the TGI (T-47D breast) was greater than 100 µM, the TGI (TK-10 renal) was 42.5 µM and the TGI (U251 CNS) was 27.9 µM. The TGI (UACC-257 melanoma) was 31.5 µM, the TGI (UACC-62 melanoma) was 27.4 µM and the TGI (UO-31 renal) was 49.8 µM.
